Assays:
[1] = system: primary MEFs or breast cancer cells; assay: Cell viability of MEFs and breast cancer cells with kinase inhibitors; format: cell-based, mouse, human
Method: The D. melanogaster embryonic cell line Kc167 was grown in Schneider medium (Invitrogen, Carlsbad, Calif.) supplemented with 10% heat-inactivated (56° C./30 min) fetal bovine serum (FBS), penicillin and streptomycin at 22° C. in a humidified incubator. Primary MEFs were obtained by harvesting 14.5-day C57BL/6J embryos as previously described (Ravi et al., 2009, PLoS Genet 5, e1000527). Briefly, fetal liver and head were removed and the remainder of the embryo was mechanically disaggregated in plating medium. A suspension of single-cells was plated in DMEM (plus 10% FBS, 100 U/mL penicillin and 100 μg/mL streptomycin). MEFs were grown for two passages before freezing aliquots. Aliquots were taken and expanded as needed for each experiment. MDA-MB231, SkBr3 and MCF-7 breast cancer cells lines were obtained from ATCC and grown in DMEM supplemented with 10% inactivated FBS plus antibiotics in a 37° C. humidified incubator at […] atmosphere. Cells were kept and treated in the exponential phase of growing (60-70% confluence). Pharmaceuticals Sorafenib (Santa Cruz Biotechnology), UO126, SP600125, SB239063, celecoxib, buthionine sulfoximine (BSO), cycloheximide (CHX), actinomycin D and BAY117082 (BAY), or antioxidants as N-Acetyl-Cysteine (NAC), glutathione ethyl-ester (GSH-E) and Trolox (all from Sigma-Aldrich, USA) were pre-incubated with cells for 6 to 8 h before treatments with MMS, temozolomide, CDDP (from Sigma-Aldrich, USA) or 4-hydroperoxycyclophosphamide (4-HC; from US Biological). DMSO concentrations were kept to a maximum of 0.1% for all experiments.
Cell viability was assessed using CellTiter-Glo Luminescent Viability assay (Promega) in 384 or 96-well plates white-border clear-bottom plated cells. For caspase-3/7 activity, Caspase-Glo 3/7 Assay kits were used (Promega). For caspase assays, the cells were seeded in 96-well plates and assayed directly after treatments. […] LDH release into culture medium was quantified by Cytotox-96 Non-Radioactive assay kit in agreement with instructions (Promega).

[2] = system: NRF2, GCLC, ER stress markers; assay: Western blot of NRF2, GCLC and ER stress markers; format: cell-based; conditions: MEFs, MDA-MB231, MCF-7; 8-12 h
Method: Western blot. Protein lysates were prepared using RIPA buffer containing 5% sodium deoxycholate, 0.1% SDS, 0.1% Igepal in PBS with a cocktail of protease and phosphatase inhibitors (1 mM PMSF, 1 mM sodium orthovanadate, 1 mM NaF, and 30 μL/mL aprotinin (Sigma-Aldrich, USA)) and clarified by centrifugation. Protein concentration was determined using Bradford Protein Assay Reagent (Biorad, Hercules, Calif.). Equal amounts of protein were resolved using 8-12% SDS polyacrylamide gel, transferred onto nitrocellulose membranes (Hybond-ECL, GE Healthcare Lifesciences, Piscataway, N.J.) and detected using Lumiglo system (Cell Signaling Technology, Calif.) and x-ray films. Primary antibodies included COX-2 (#4842), NRF2 (D1C9), p-JNK1/2 (Thr183/Tyr185, #4671), p-p38 (Thr180/Tyr182, #9216), p-ERK1/2 (Thr202/Tyr204, #9101), BiP/GRP78 (C50B12), IRE1a (14C10), CHOP (L63F7) and PERK (D11A8) from Cell Signaling Technology; p-IRE1a (Ser724; NB100-2323) from Novus Biologicals; GCLC (Ab41463), beta-actin (ab8227) and ATF6 (Ab37149) from Abcam; p-PERK (Thr 981, sc-32577) and ATF3 (C19) were purchased from Santa Cruz. All primary antibodies were used at 1:1000 dilutions and secondary antibodies were 1:3000 in TBS-T with 5% BSA.

| SMILES | effect on viability at low concentrations ([1]; 1 to 5 μM, presence or absence of alkylating agents) | concentration with non-selective cytotoxicity ([1]; breast cell lines and MEFs, GSH depletion, aberrant ROS) | viability at higher levels ([1]; higher levels of sorafenib) | NRF2 and GCLC protein levels [2] |
| --- | --- | --- | --- | --- |
| CNC(=O)c1cc(Oc2ccc(NC(=O)Nc3ccc(Cl)c(C(F)(F)F)c3)cc2)ccn1 [sorafenib, 4-[4-[[4-chloro-3-(trifluoromethyl)phenyl]carbamoylamino]phenoxy]-N-methyl-pyridine-2-carboxamide] | did not affect MMS/4-HC-induced losses in cell viability | ≥ 20 µM | non-selective detriment to both cancer cells and MEFs | – |
| COS(C)(=O)=O [MMS, methyl-methanesulfonate] | – | – | – | rapidly increased in total and nuclear fractions |
